Laboratory results: PubChem BioAssay AID248 (DTP/NCI, 2004)
Values joined by “and” are separate entries in the source; they are usually repeats but may differ in a detail not shown here. Identical values can stand only once. Inconclusive results and toxic doses are left out. No stated cut-off is given here; in the data, active means T/C of 150% or more; inactive means T/C below 125%.

Test system: L1210 leukemia ip in BDF1 mice, survival T/C
Test: NCI In Vivo Anticancer Drug Screen. Data for tumor model L1210 Leukemia (intraperitoneal) in B6D2F1 (BDF1) mice
Conditions: higher = longer survival
How it was run: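 Tumor was transplanted into mice, which were then dosed with test compound or vehicle alone. Survival was recorded for each group, and the treated figure was expressed relative to the control figure.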

[1] = endpoint: mean survival time, dose: 100.0 mg/kg/injection, schedule: Q01DX001 (ip), vehicle: saline
[2] = endpoint: mean survival time, dose: 200.0 mg/kg/injection, schedule: Q01DX001 (ip), vehicle: saline
[3] = endpoint: mean survival time, dose: 400.0 mg/kg/injection, schedule: Q01DX001 (ip), vehicle: saline
[4] = endpoint: mean survival time, dose: 100.0 mg/kg/injection, schedule: Q01DX009 (ip), vehicle: Klucel (hydroxypropylcellulose) (HPC)
[5] = endpoint: mean survival time, dose: 100.0 mg/kg/injection, schedule: Q04DX003 (ip), vehicle: Klucel (hydroxypropylcellulose) (HPC)
[6] = endpoint: mean survival time, dose: 200.0 mg/kg/injection, schedule: Q01DX009 (ip), vehicle: Klucel (hydroxypropylcellulose) (HPC)
[7] = endpoint: mean survival time, dose: 200.0 mg/kg/injection, schedule: Q04DX003 (ip), vehicle: Klucel (hydroxypropylcellulose) (HPC)
[8] = endpoint: mean survival time, dose: 400.0 mg/kg/injection, schedule: Q01DX009 (ip), vehicle: Klucel (hydroxypropylcellulose) (HPC)
[9] = endpoint: mean survival time, dose: 400.0 mg/kg/injection, schedule: Q04DX003 (ip), vehicle: Klucel (hydroxypropylcellulose) (HPC)
[10] = endpoint: mean survival time, dose: 100.0 mg/kg/injection, schedule: Q01DX009 (ip), vehicle: saline with Tween-80
[11] = endpoint: mean survival time, dose: 200.0 mg/kg/injection, schedule: Q01DX009 (ip), vehicle: saline with Tween-80
[12] = endpoint: mean survival time, dose: 100.0 mg/kg/injection, schedule: Q04DX003 (ip), vehicle: saline with Tween-80
[13] = endpoint: mean survival time, dose: 200.0 mg/kg/injection, schedule: Q04DX003 (ip), vehicle: saline with Tween-80
[14] = endpoint: mean survival time, dose: 400.0 mg/kg/injection, schedule: Q04DX003 (ip), vehicle: saline with Tween-80
[15] = endpoint: mean survival time, dose: 100.0 mg/kg/injection, schedule: Q01DX001 (ip), vehicle: carboxymethylcellulose (CMC)
[16] = endpoint: mean survival time, dose: 200.0 mg/kg/injection, schedule: Q01DX001 (ip), vehicle: carboxymethylcellulose (CMC)
[17] = endpoint: mean survival time, dose: 400.0 mg/kg/injection, schedule: Q01DX001 (ip), vehicle: carboxymethylcellulose (CMC)
[18] = endpoint: mean survival time, dose: 100.0 mg/kg/injection, schedule: Q01DX Z (ip), vehicle: saline

Measured: T/C

CC(C)NC(=O)CCSCCC(=O)NC(C)C
inactive: endpoint: mean survival time, dose: 200.0 mg/kg/injection, schedule: Q04DX002 (ip), vehicle: other 94 % of control | endpoint: mean survival time, dose: 400.0 mg/kg/injection, schedule: Q04DX002 (ip), vehicle: other 94 % of control

O=C(CN1C(=O)c2ccccc2C1=O)c1cccc(Br)c1
inactive: [1] 95 % of control | [2] 104 % of control | [3] 103 % of control

O=C(Nc1ccccc1)Oc1ccc(Cl)cc1
inactive: [4] 97 % of control | [5] 107 % of control | [6] 102 % of control | [7] 96 % of control | [8] 103 % of control | [9] 113 % of control

C(=C/P(c1ccccc1)c1ccccc1)/P(c1ccccc1)c1ccccc1
inactive: endpoint: mean survival time, dose: 75.0 mg/kg/injection, schedule: Q01DX001 (ip), vehicle: saline 108 % of control | endpoint: mean survival time, dose: 150.0 mg/kg/injection, schedule: Q01DX001 (ip), vehicle: saline 98 % of control | endpoint: mean survival time, dose: 300.0 mg/kg/injection, schedule: Q01DX001 (ip), vehicle: saline 93 % of control

CCOC(=O)CC(=O)Cc1cccc([N+](=O)[O-])c1
inactive: [4] 91 % of control | [5] 100 % of control | [6] 88 % of control | [7] 107 % of control | [9] 107 % of control

COc1ccc([N+](=O)[O-])c2conc12
inactive: endpoint: mean survival time, dose: 50.0 mg/kg/injection, schedule: Q01DX009 (ip), vehicle: saline with Tween-80 95 % of control | [10] 98 % of control | [11] 103 % of control

Nc1nc(N2CCCCC2)c2nc(Cl)n(C3OC(CO)C(O)C3O)c2n1 (configuration not stated)
inactive: [1] 96 % of control | [2] 94 % of control | [3] 97 % of control

c1cc2c(cc1C1=NNC(c3ccc4c(c3)OCO4)=NN1)OCO2
inactive: [12] 104 % of control | [13] 98 % of control | [14] 96 % of control

CC(=O)Nc1ccc(OC(=O)Nc2ccc(C)cc2[N+](=O)[O-])cc1
inactive: [5] 91 % of control | [7] 102 % of control | [9] 106 % of control

C/C(=N\Nc1c(F)c(F)c(F)c(F)c1F)c1ccccc1
inactive: endpoint: mean survival time, dose: 100.0 mg/kg/injection, schedule: Q01DX001 (ip), vehicle: saline with Tween-80 105 % of control | endpoint: mean survival time, dose: 200.0 mg/kg/injection, schedule: Q01DX001 (ip), vehicle: saline with Tween-80 96 % of control | endpoint: mean survival time, dose: 400.0 mg/kg/injection, schedule: Q01DX001 (ip), vehicle: saline with Tween-80 100 % of control

COC(=O)C1(CCOC(C)=O)CCCCC12OCCO2 (configuration not stated)
inactive: [15] 94 % of control | [16] 100 % of control | [17] 91 % of control

CSc1nc(C(=O)O)c(C)c(=O)[nH]1
inactive: [18] 109 % of control | endpoint: mean survival time, dose: 200.0 mg/kg/injection, schedule: Q01DX Z (ip), vehicle: saline 100 % of control

CCNC(=S)NNC(=S)NNc1ccccc1
inactive: endpoint: mean survival time, dose: 12.5 mg/kg/injection, schedule: Q04DX002 (ip), vehicle: other 102 % of control | endpoint: mean survival time, dose: 25.0 mg/kg/injection, schedule: Q04DX002 (ip), vehicle: other 100 % of control | endpoint: mean survival time, dose: 50.0 mg/kg/injection, schedule: Q04DX002 (ip), vehicle: other 102 % of control

OC(CC(O)(C(F)(F)F)C(F)(F)F)c1cccs1 (configuration not stated)
inactive: [12] 106 % of control | [13] 100 % of control | [14] 101 % of control

Nc1ccccc1N/N=C/c1ccccc1
inactive: [1] 101 % of control | [2] 101 % of control | [3] 94 % of control

COc1ccc(C(=O)Nc2ccccc2)cc1[N+](=O)[O-]
inactive: [4] 96 % of control | [10] 101 % of control | [12] 101 % of control | [6] 98 % of control | [11] 94 % of control | [13] 97 % of control | [8] 98 % of control | endpoint: mean survival time, dose: 400.0 mg/kg/injection, schedule: Q01DX009 (ip), vehicle: saline with Tween-80 86 % of control | [14] 101 % of control

Cc1ccc(NC(=O)Nc2ccc(Cl)cc2)c(C)c1
inactive: [15] 101 % of control | [16] 106 % of control | [17] 98 % of control

O=C1NCC(Nc2ccccc2Cl)C(=O)N1 (configuration not stated)
inactive: [18] 96 % of control

COC(=O)c1ccccc1N=NN(C)C
inactive: [15] 102 % of control | [16] 102 % of control | endpoint: median survival time, dose: 65.0 mg/kg/injection, schedule: Q01DX001 (ip), vehicle: steriod suspending solution 110 % of control | endpoint: median survival time, dose: 108.0 mg/kg/injection, schedule: Q01DX001 (ip), vehicle: steriod suspending solution 105 % of control | endpoint: median survival time, dose: 180.0 mg/kg/injection, schedule: Q01DX001 (ip), vehicle: steriod suspending solution 120 % of control | endpoint: median survival time, dose: 300.0 mg/kg/injection, schedule: Q01DX001 (ip), vehicle: steriod suspending solution 105 % of control

CC(O)(c1cccc(Cl)c1)C(c1ccccc1)c1ccccn1 (configuration not stated)
inactive: [12] 101 % of control and 100 % of control | [13] 92 % of control and 106 % of control | [14] 101 % of control and 106 % of control

C=C1C(=O)O[C@@H]2[C@H]1CC[C@H](C)[C@@H]1CCC(=O)[C@@]21C
inactive: [1] 102 % of control | [2] 100 % of control | [3] 98 % of control

CC(=O)O[C@H]1CC[C@]2(C)[C@H]3CC[C@]4(C)[C@@H](OC(C)=O)CC[C@H]4[C@@H]3[C@@H](C)[C@]2(O)C1
inactive: endpoint: mean survival time, dose: 50.0 mg/kg/injection, schedule: Q01DX001 (sc), vehicle: steriod suspending solution 102 % of control | endpoint: mean survival time, dose: 100.0 mg/kg/injection, schedule: Q01DX001 (sc), vehicle: steriod suspending solution 100 % of control | endpoint: mean survival time, dose: 200.0 mg/kg/injection, schedule: Q01DX001 (sc), vehicle: steriod suspending solution 102 % of control | endpoint: mean survival time, dose: 400.0 mg/kg/injection, schedule: Q01DX001 (sc), vehicle: steriod suspending solution 105 % of control

NC(=O)c1ccccn1
inactive: endpoint: mean survival time, dose: 50.0 mg/kg/injection, schedule: Q01DX009 (ip), vehicle: Klucel (hydroxypropylcellulose) (HPC) 98 % of control | endpoint: mean survival time, dose: 50.0 mg/kg/injection, schedule: Q04DX003 (ip), vehicle: Klucel (hydroxypropylcellulose) (HPC) 100 % of control | [4] 95 % of control | [5] 102 % of control | [6] 87 % of control | [7] 101 % of control and 102 % of control

CC(C)C(=O)c1ccc([N+](=O)[O-])o1
inactive: [10] 94 % of control | [12] 99 % of control | [11] 96 % of control | [13] 99 % of control | [14] 88 % of control

O=C(c1cccc([N+](=O)[O-])c1)c1ccc(O)cc1O
inactive: endpoint: mean survival time, dose: 100.0 mg/kg/injection, schedule: Q01DX001 (ip), vehicle: other 103 % of control | endpoint: mean survival time, dose: 100.0 mg/kg/injection, schedule: Q04DX003 (ip), vehicle: other 103 % of control | endpoint: mean survival time, dose: 200.0 mg/kg/injection, schedule: Q01DX001 (ip), vehicle: other 95 % of control | endpoint: mean survival time, dose: 200.0 mg/kg/injection, schedule: Q04DX003 (ip), vehicle: other 100 % of control | endpoint: mean survival time, dose: 400.0 mg/kg/injection, schedule: Q01DX001 (ip), vehicle: other 95 % of control | endpoint: mean survival time, dose: 400.0 mg/kg/injection, schedule: Q04DX003 (ip), vehicle: other 100 % of control

CCS(=O)(=O)C1C2C=CC(O2)C1S(=O)(=O)CC (configuration not stated)
inactive: [5] 102 % of control | [7] 101 % of control | [9] 96 % of control
